Test results as given in publication PMC9503518, “Antibacterial and Antifungal Properties of a Novel Antimicrobial Peptide GK-19 and Its Application in Skin and Soft Tissue Infections Induced by MRSA or Candida albicans” (Pharmaceutics, 2022).
Where no end group is shown, it is not given here.

Tests used:
[1] = Peptide stability in water by HPLC; type: physicochemical; details: 10 mg/mL in water, 37 °C, 200 rpm, 0 and 48 h, HPLC 220 nm, repeated three times
Method: (§1) Antimicrobial peptides were dissolved in water or rat serum with a concentration of 10 mg/mL. The solution was incubated at 37 °C, 200 rpm for different time periods, and diluted 50 times for the HPLC analysis. In water, the incubation time was 0 h and 48 h. In rat serum, the incubation time was 0, 2, 4, 7, 12, 24 or 48 h. Each incubation condition was repeated three times. HPLC was conducted on a Waters HPLC system, which consisted of a 2996 photodiode array detector, a 2695 separation module and a temperature control column oven. Column: Sinochrom ODS-BP, 5 μm, 4.6 × 250 mm (Dalian Elite Analytical Instruments Co., Ltd., Dalian, China). Mobile phase: A: 100% ACN + 0.1% TFA; B: 100% Water + 0.1% TFA. Gradient elution: 0–20 min, 95% B–100% A; 20–25 min, 100% A. Detection wavelength: 220 nm. Flow rate: 1 mL/min. Sample volume: 50 μL (0.2 mg/mL).

[2] = tested on: Human embryonic kidney cells (293)
Method: (§2) Rat pulmonary artery smooth muscle cells (RPASMCs, primary cells separated by our laboratory) and human keratinocytes cells (HaCaT cells, Mingjing Biology, Shanghai, China) were cultured in high-glucose Dulbecco’s Modified Eagle Medium (DMEM), supplemented with 10% fetal bovine serum (FBS). Human umbilical vein endothelial cells (HUVECs, BeNa Culture Collection, Kunshan City, China) were cultured in the MCDB131 medium supplemented with 20% FBS and growth factor additives. Human embryonic kidney cells (293, Procell Life Science & Technology Co., Ltd., Wuhan, China) were cultured in minimum Eagle’s medium (MEM) supplemented with 10% FBS. All cells were cultured at 37 °C, with 5% CO2. All animals used in this study were supplied by the Medical Animal Test Center of Xi’an Jiaotong University and study protocols were approved by the Institutional Animal Care and Use Committee of the Ethics Committee of Health Science Center, Xi’an Jiaotong University (Ethical approval code: 2017-609).
(§3) Cells were inoculated in 96-well plates at 5 × 10^3 cells/well and cultured at 37 °C under 5% CO2. The supernatant was removed, and the cells were washed three times with PBS. Next, 100 μL of fresh culture medium containing different antimicrobial peptides was added (peptide concentration: 0, 1.0, 2.0, 5.0, 10, 25, 50 and 100 μM). Each concentration was repeated five times. Then, 10 μL of CCK-8 reagent was added 48 h later, followed by another two hours of incubation. The absorbance at 450 nm was measured using the same Multilabel Reader. Cellular growth viability was calculated using the following equation:Viability (%) = (mean absorbance value of treatment group − mean absorbance value of blank group group)/(mean absorbance value of control group − mean absorbance value of blank group) × 100. (2)

[3] = tested on: Human umbilical vein endothelial cells (HUVECs)
Method: as §2, §3

[4] = tested on: Rat pulmonary artery smooth muscle cells (RPASMCs)
Method: as §2, §3

[5] = tested on: human keratinocytes cells (HaCaT cells)
Method: as §2, §3

Kunming mice = details: mouse, in vivo, iv
Method: Forty healthy male Kunming mice weighing ~25 g (5–6 weeks old) were injected intravenously with 100 μL of GK-19 with concentrations of 5 μmol/kg (n = 15) or 25 μmol/kg (n = 15). Mice blood samples (n = 5, per group and per time point) were collected from the mice’s eyeballs on days 1, 3 and 7 after injection for renal function test and liver function test. Meanwhile, major organs including lungs, heart, kidneys, liver and spleen were also harvested for hematoxylin and eosin staining on days 1, 3 and 7 after injection. To monitor the body weight changes in mice after injection of GK-19, five healthy male Kunming mice weighing ~25 g were injected intravenously with 100 μL of GK-19 with concentrations of 25 μmol/kg. Mice weights were recorded daily for seven days.
The hematoxylin and eosin staining in this study was carried out by Servicebio (Wuhan, China). Briefly, the obtained skin tissues were soaked in 4% paraformaldehyde solution (Beyotime, China) and fixed for more than 24 h. Then, they were dehydrated and embedded with paraffin, and tissue sections having thicknesses of 4 μm were prepared. After deparaffinization and rehydration, hematoxylin and eosin staining was performed.

[6] = Peptide stability in rat serum by HPLC; type: in vitro ADME; details: 10 mg/mL in rat serum, 37 °C, 200 rpm, 24 h, HPLC peak area 220 nm, repeated three times; read-out: peptide remaining after 24 h of co-incubation with rat serum
Method: as §1

GFLFKLIPKAIKKLISKFK [GK-19]
time for which structural stability was retained in water [1]: ≥ 48 h
cytotoxicity at the effective antimicrobial concentration, 293 cells [2]: almost no apoptotic cells
cell viability, 293 cells ([2]; 100 µM): less than 20%
cytotoxicity at the effective antimicrobial concentration, HUVECs [3]: almost no apoptotic cells
cell viability, HUVECs ([3]; 100 µM): less than 20%
cytotoxicity at the effective antimicrobial concentration, RPASMCs [4]: almost no apoptotic cells
cell viability, RPASMCs ([4]; 100 µM): less than 20%
cytotoxicity at the effective antimicrobial concentration, HaCaT [5]: almost no apoptotic cells
cells surviving, HaCaT ([5]; 48 h, 100 μM): more than 42%
body weight change (Kunming mice): gradual gain in body weight
histology of major organs (heart, liver, spleen, lungs, kidneys) (Kunming mice): no observable tissue damage, necrosis, or inflammation
liver and renal function tests (Kunming mice): no difference from that in healthy mice
remaining at 24 h, 10 mg/mL [6]: > 50%
